Measurements: patent US5075337A, “Alpha-deuterated 2-alkylaminoacetamide derivatives having reduced toxicity for treatment of CNS disorders” (G. D. Searle & Co., priority 1989, dated 1991)

What was measured:
[1] = test system: convulsions induced by bicuculline (BIC); assay: Prevention of chemically induced convulsions (bicuculline); type: in vivo, mouse (male Swiss albino); conditions: 30 mg/kg oral; bicuculline 0.6 mg/kg intravenously; 4 groups of 5 mice
Protocol: (§1) The anticonvulsive effect of a compound of the invention was examined for clonic, tonic convulsions and death induced by different convulsant agents, namely, 3-mercaptopropionic acid (3-MPA 120 mg/kg subcutaneously) and bicuculline (BIC, 0.6 mg/kg intravenously), (W. van Dorsser, D. Barris, A. Cordi and J. Roba; Arch. Int. Pharmacodyn., 266: 239-249 (1983)). The compounds of the invention were administered orally at dosage of either 100 mg/kg (3-MPA) or 30 mg/kg (BIc) in a volume of 10 ml/kg, each to 5 mice, 30 minutes or 2 hours before convulsions were induced. Test mice used were male Swiss albino mice weighing 22-33 g, CDl, charles River, France, housed in group of 10 on a 12 hours light-dark cycle for at least 1 week before use, and fasted overnight. The number of mice protected against tonic convulsions and the number of dead mice were noted. The results are given as a score which represents the total number of mice protected by a dose of 100 mg/kg for two groups of 5 animals (3-MPA) or the percentage of mice protected by a dose of 30 mg/kg in 4 groups of 5 animals (BIC).

[2] = biological target: T1, monoamine oxidase enzyme (MAO-B) (Rattus norvegicus, UniProt P19643); assay: MAO-B enzyme inhibition assay (rat brain mitochondria, preincubation with inhibitor); type: biochemical, rat (Sprague Dawley)
T1 construct: 14C-beta-phenylethylamine substrate
T1 sequence (P19643 1-520): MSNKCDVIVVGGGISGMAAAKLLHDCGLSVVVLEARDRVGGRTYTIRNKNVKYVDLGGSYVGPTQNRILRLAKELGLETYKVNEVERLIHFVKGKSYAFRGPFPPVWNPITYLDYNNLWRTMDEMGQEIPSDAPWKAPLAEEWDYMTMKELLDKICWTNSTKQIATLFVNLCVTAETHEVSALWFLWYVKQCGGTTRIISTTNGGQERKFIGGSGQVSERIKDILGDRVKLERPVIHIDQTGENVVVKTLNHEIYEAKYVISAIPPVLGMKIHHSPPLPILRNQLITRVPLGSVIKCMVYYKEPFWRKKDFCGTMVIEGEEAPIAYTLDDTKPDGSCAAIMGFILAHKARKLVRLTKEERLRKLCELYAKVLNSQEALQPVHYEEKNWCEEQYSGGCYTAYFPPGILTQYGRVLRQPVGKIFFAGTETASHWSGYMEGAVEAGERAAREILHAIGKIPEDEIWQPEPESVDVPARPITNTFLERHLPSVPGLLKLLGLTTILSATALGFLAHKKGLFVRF
Protocol: Rat brain mitochondria were purified by a modification of the method of Dodd (Dodd Sprague Dawley rats of about 200 gr were decapitated and the brain was rapidly removed from the skull. Brains were homogenized with a glass-Teflon homogenizer in ice cold 0.32M sucrose (1/10, w/v). The homogenate was centrifuged at 2,400 g for 10 min at 4° C. The supernatant was centrifuged at 3,000 g for 10 min at 4° C. This last supernatant (8 ml) was poured into at tube containing 4 ml of 1.2M sucrose. The mitochondrial fraction is obtained after a centrifugation at 115,000 g for 30 min at 4° C. The mitochondrial pellet was suspended in 4 ml of 50 mM Na phosphate buffer and stored as aliquots at -30° C. […] Aliquots of the mitochondrial fraction were preincubated with ^2 H-milacemide or milacemide (200 μM in 50 mM Na phosphate buffer pH8) for different time periods, the samples were diluted with the incubation buffer, centrifuged and the pelleis were then used for the MAO assay. The enzymatic assay was performed in Eppendorf micro tubes (1.5 ml). The 100 μl total incubation volume contained 40 μl of 7 mM ^14 C-β-phenylethylamine, 20 μl of 50 mM Na phosphate buffer pH 8 and 40 μl of the pre-incubated mitochondrial fraction (0.2 mg protein/ml). The closed micro tubes were immediately shaken using a vortex and incubated during 4 min at 37° C. The reaclion was stopped by adding 20 μl of 1.5 N Hcl into the tube placed in an ice bath. The deaminated products were extracted with 600 μl of a toluene-ethyl acetate mixture (water saturated) and strongly mixed during 30 sec. The two layers were separated by centrifugation (10.000 g) for 10 min. Then, 400μL of the organic layer were added to 4 ml of lumagel in a scintillation counting vial. Blank values are obtained by incubating the mitochondrial fraction with Hcl 1.5M.

[3] = test system: convulsions induced by 3-mercaptopropionic acid (3-MPA); assay: Prevention of chemically induced convulsions (3-MPA); type: in vivo, mouse (male Swiss albino); conditions: 100 mg/kg oral; 3-MPA 120 mg/kg subcutaneously; two groups of 5 mice
Protocol: as §1

[4] = Comparative pharmacokinetic study, 1:1 mixture of milacemide and ^2 H-milacemide; type: in vivo, cynomolgus monkey (Macaca fascicularis); conditions: for ^2 H-milacemide/milacemide ratio, plasma AUC / ^2 H-milacemide/milacemide ratio, urine 24 hours excretion: 1:1 mixture
Protocol: A comparative pharmacokinetic study was conducted in the cynomolgus monkey (Macaca fascicularis) with a 1:1 mixture of milacemide and ^2 H-milacemide administered to 4 males and 4 females used in this study. One animal of each sex received the mixture either by the i.v. route at the dose of 30 mg/kg, or by the intragastric route at the dose of 30 mg/kg or 100 mg/kg, or 300 mg/kg. Plasma samples were drawn from the males and 0-24 hours urine samples were collected by the females. Preliminary determinations of milacemide in the urine samples were made by HPLC. […] The aqueous solution was made alkaline by the addition of 0.3 mL of 0 5M borate buffer at pH 9.3. Derivatization occurs by addition of 0.3 mL of a solution of fluorescamine in acetone (75 g/L), then 10 to 20 pL aliquots were injected on a 5 Bondapak C18 column eluted by a mixture of tetrahydrofuran, water and 0.5M borate buffer (2/6/2) adjusted to pH 8 by the addition of hydrochloric acid. […] Analysis of the ratio of unchanged deutero milacemide versus milacemide, was performed by GC-MS Milacemide and ^2 H-milacemide extracted from plasma aliquots were transformed into their respective N-trifluoroacetylated nitrile by reaction with trifluoroacetic anhydride. After separation from the impurities, on a 3% OV 17 column, the mass spectra were obtained in the chemical ionization mode by ammonia on a Riber 10-10 B mass spectrometer. […] Quantification was performed using selected ion monitoring (SIM) on the base peaks mentioned.

[5] = in words; literature; cited from earlier work
MAO-B enzyme = conditions: in words; literature; cited from earlier work
[6] = 200 μM, preincubation, pH 8, rat brain mitochondria, 50% inhibition
[7] = compared with milacemide, in words

| SMILES | BIC (% Protected) [1] [%] | time to reach the same level of inhibition (50%) of MAO-B [2, 6] | fold more time needed to reach the same level (50%) of MAO-B inhibition, ^2 H-milacemide vs milacemide ([2]; ^2 H-milacemide relative to milacemide) [fold] | 3-MPA (% Protected) [3] [%] | ^2 H-milacemide/milacemide ratio, plasma AUC ([4]; 30 mg/kg i.g.) | ^2 H-milacemide/milacemide ratio, urine 24 hours excretion ([4]; 30 mg/kg i.g.) | ^2 H-milacemide/milacemide ratio, plasma AUC ([4]; 30 mg/kg i.v.) | ^2 H-milacemide/milacemide ratio, urine 24 hours excretion ([4]; 30 mg/kg i.v.) | ^2 H-milacemide/milacemide ratio, plasma AUC ([4]; 100 mg/kg i.g.) | ^2 H-milacemide/milacemide ratio, urine 24 hours excretion ([4]; 100 mg/kg i.g.) | ^2 H-milacemide/milacemide ratio, plasma AUC ([4]; 300 mg/kg i.g.) | ^2 H-milacemide/milacemide ratio, urine 24 hours excretion ([4]; 300 mg/kg i.g.) | first pass effect [4, 7] | half-life [4, 7] | metabolic clearance [4, 7] | brain bioavailability [5] | time to inhibit MAO-B activity by 50% [2, 6] [min] | metabolism in the peripheral system by the MAO-B enzyme (MAO-B enzyme) |
| --- | --- | --- | --- | --- | --- | --- | --- | --- | --- | --- | --- | --- | --- | --- | --- | --- | --- | --- |
| [2H]C([2H])(CCCC)NCC(N)=O [^2 H-milacemide, 2-(1,1-dideuteropentylamino)acetamide] | 45 | at least 3 hours | 6 | 10 | 14.6 | 7.4 | 2.6 | 3.1 | 9.2 | 5.2 | 7.1 | 3.7 | reduced first pass effect | prolonged | decreased metabolic clearance | – | – | – |
| CCCCCNCC(N)=O [milacemide, 2-n-pentylaminoacetamide, reference compound] | 65 | – | – | 20 | – | – | – | – | – | – | – | – | – | – | – | limited brain bioavailability | 30 | metabolized in the peripheral system by the MAO-B enzyme |
| NNCCc1ccccc1 [phenelzine] | – | – | – | – | – | – | – | – | – | – | – | – | – | – | – | limiting its brain bioavailability | – | metabolized in the peripheral system by the MAO-B enzyme |
